Experimental data taken from patent publication US12479830B2, “Homopiperazinyl and homopiperidinyl quinazolin-4(3H)-one derivatives having multimodal activity against pain” (ESTEVE PHARMACEUTICALS, S.A., priority 2019, dated 2025).

Legend:
[1] = molecular target: Human α2δ-1 subunit of Cav2.2 calcium channel (Homo sapiens, UniProt P54289); assay: Human α2δ-1 subunit of Cav2.2 calcium channel assay ([3H]-gabapentin binding); settings: binding to the α2δ-1 subunit of voltage-gated calcium channels, expressed as Ki class; + also covers inhibition between 1% and 50%
Sequence of Human α2δ-1 subunit of Cav2.2 calcium channel (P54289 25-1103): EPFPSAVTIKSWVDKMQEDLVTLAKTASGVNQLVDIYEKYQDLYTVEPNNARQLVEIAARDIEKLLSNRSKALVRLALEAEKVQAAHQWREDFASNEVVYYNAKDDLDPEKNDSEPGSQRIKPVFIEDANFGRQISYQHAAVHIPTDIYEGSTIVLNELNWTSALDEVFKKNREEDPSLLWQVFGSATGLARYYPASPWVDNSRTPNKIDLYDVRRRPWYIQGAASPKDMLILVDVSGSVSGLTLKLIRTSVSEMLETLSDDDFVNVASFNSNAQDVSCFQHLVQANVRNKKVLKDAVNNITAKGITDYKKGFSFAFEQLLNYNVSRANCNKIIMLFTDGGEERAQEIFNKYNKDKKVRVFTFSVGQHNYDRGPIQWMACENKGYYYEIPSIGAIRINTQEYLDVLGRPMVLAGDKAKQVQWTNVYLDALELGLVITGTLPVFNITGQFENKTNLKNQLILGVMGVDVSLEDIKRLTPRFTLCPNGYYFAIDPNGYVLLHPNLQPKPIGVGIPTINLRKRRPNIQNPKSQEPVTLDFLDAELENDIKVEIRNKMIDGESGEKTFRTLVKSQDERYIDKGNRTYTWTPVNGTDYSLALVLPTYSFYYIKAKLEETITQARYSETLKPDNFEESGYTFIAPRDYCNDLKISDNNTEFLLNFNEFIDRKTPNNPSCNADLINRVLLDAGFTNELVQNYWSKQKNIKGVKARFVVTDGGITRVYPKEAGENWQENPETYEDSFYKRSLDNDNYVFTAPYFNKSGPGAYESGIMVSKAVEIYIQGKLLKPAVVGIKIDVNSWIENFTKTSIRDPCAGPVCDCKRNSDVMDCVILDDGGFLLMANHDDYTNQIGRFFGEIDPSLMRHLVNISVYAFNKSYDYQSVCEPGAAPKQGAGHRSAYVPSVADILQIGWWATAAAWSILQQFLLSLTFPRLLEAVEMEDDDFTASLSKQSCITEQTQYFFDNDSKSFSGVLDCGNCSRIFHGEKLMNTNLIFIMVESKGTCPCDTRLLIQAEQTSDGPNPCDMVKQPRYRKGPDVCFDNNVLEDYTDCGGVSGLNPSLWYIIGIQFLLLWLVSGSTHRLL
Method: Human α2δ-1 Subunit of Cav2.2 Calcium Channel Assay
Human α2δ-1 enriched membranes (2.5 μg) were incubated with 15 nM of radiolabeled [^3H]-Gabapentin in assay buffer containing Hepes-KOH 10 mM. pH 7.4. NSB (non specific binding) was measured by adding 10 μM pregabalin. The binding of the test compound was measured at either one concentration (% inhibition at 1 or 10 μM) or five different concentrations to determine affinity values (Ki). After 60 min incubation at 27° C., binding reaction was terminated by filtering through Multiscreen GF/C (Millipore) presoaked in 0.5% polyethyleneimine in Vacuum Manifold Station, followed by 3 washes with ice-cold filtration buffer containing 50 mM Tris-HCl, pH 7.4. Filter plates were dried at 60° C. for 1 h and 30 μL of scintillation cocktail were added to each well before radioactivity reading. Readings were performed in a Trilux 1450 Microbeta radioactive counter (Perkin Elmer).

Human σ1 receptor = molecular target: T1, Human σ1 receptor (Homo sapiens, UniProt Q99720); assay: Human σ1 receptor radioligand assay ([3H](+)-pentazocine binding); settings: binding to the σ1 receptor, expressed as Ki class; + also covers inhibition between 1% and 50%
T1 construct: expressed in transfected cells; host or cells: HEK-293
T1 sequence (Q99720 whole entry): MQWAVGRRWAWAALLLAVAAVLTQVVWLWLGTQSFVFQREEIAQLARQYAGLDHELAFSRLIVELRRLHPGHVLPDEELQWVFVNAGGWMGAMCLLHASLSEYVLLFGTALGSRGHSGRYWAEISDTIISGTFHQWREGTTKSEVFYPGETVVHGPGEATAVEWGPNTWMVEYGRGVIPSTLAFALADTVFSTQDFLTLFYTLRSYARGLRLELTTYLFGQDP
Method: Human σ1 Receptor Radioligand Assay
Transfected HEK-293 membranes (7 μg) were incubated with 5 nM of [^3H](+)-pentazocine in assay buffer containing Tris-HCl 50 mM at pH 8. NBS (non-specific binding) was measured by adding 10 μM haloperidol. The binding of the test compound was measured at either one concentration (% inhibition at 1 or 10 μM) or five different concentrations to determine affinity values (Ki). Plates were incubated at 37° C. for 120 minutes. After the incubation period, the reaction mix was then transferred to MultiScreen HTS, FC plates (Millipore), filtered and plates were washed 3 times with ice-cold 10 mM Tris-HCL (pH7.4). Filters were dried and counted at approximately 40% efficiency in a MicroBeta scintillation counter (Perkin-Elmer) using EcoScint liquid scintillation cocktail.

| Structure (SMILES) | Ki [1] | Ki (Human σ1 receptor) |
| --- | --- | --- |
| CCC[C@@H](c1nc2ccc(Br)cc2c(=O)n1CCC)N1CCNC[C@@H](C)C1 [Example 70, 6-bromo-2-((S)-1-((R)-6-methyl-1,4-diazepan-1-yl)butyl)-3-propylquinazolin-4(3H)-one] | > 5000 nM | > 1000 nM |
| CCC[C@@H](c1nc2ccc(Cl)cc2c(=O)n1CC)N1CCN(C)C[C@H](C)C1 [Example 73, 6-chloro-2-((S)-1-((S)-4,6-dimethyl-1,4-diazepan-1-yl)butyl)-3-ethylquinazolin-4(3H)-one] | > 5000 nM | > 1000 nM |
| CCC[C@@H](c1nc2ccc(Cl)cc2c(=O)n1CC)N1CCN(C)C[C@@H](C)C1 [Example 74, 6-chloro-2-((S)-1-((R)-4,6-dimethyl-1,4-diazepan-1-yl)butyl)-3-ethylquinazolin-4(3H)-one] | > 5000 nM | > 1000 nM |
| CCC[C@H](c1nc2ccc(Cl)cc2c(=O)n1CC)N1CCN(C)C[C@H](C)C1 [Example 75, 6-chloro-2-((R)-1-((S)-4,6-dimethyl-1,4-diazepan-1-yl)butyl)-3-ethylquinazolin-4(3H)-one] | < 500 nM | 500 to 1000 nM |
| CCC[C@H](c1nc2ccc(Cl)cc2c(=O)n1CC)N1CCN(C)C[C@@H](C)C1 [Example 76, 6-chloro-2-((R)-1-((R)-4,6-dimethyl-1,4-diazepan-1-yl)butyl)-3-ethylquinazolin-4(3H)-one] | < 500 nM | 500 to 1000 nM |
| CCCC(c1nc2cc(F)c(Br)cc2c(=O)n1C)N1CCCN(C)CC1 (centres unmarked) [Example 77, 6-bromo-7-fluoro-3-methyl-2-(1-(4-methyl-1,4-diazepan-1-yl)butyl)quinazolin-4(3H)-one] | 500 to 5000 nM | < 500 nM |
| CCCC(c1nc2ccc(Br)cc2c(=O)n1CC)N1CCN2CCC1CC2 (centres unmarked) [Example 80, 2-(1-(1,4-diazabicyclo[3.2.2]nonan-4-yl)butyl)-6-bromo-3-ethylquinazolin-4(3H)-one] | > 5000 nM | > 1000 nM |
| CCCC(c1nc2ccc(F)c(F)c2c(=O)n1CC)N1CCCNCC1 (centres unmarked) [Example 81, 2-(1-(1,4-diazepan-1-yl)butyl)-3-ethyl-5,6-difluoroquinazolin-4(3H)-one] | < 500 nM | 500 to 1000 nM |
| CCCC(c1nc2ccc(Br)cc2c(=O)n1C)N1CCCN(CC)CC1 (centres unmarked) [Example 85, 6-bromo-2-(1-(4-ethyl-1,4-diazepan-1-yl)butyl)-3-methylquinazolin-4(3H)-one] | > 5000 nM | < 500 nM |
| CCCC(c1nc2cccnc2c(=O)n1CC)N1CCCN(C)CC1 (centres unmarked) [Example 86, 3-ethyl-2-(1-(4-methyl-1,4-diazepan-1-yl)butyl)pyrido[3,2-d]pyrimidin-4(3H)-one] | > 5000 nM | > 1000 nM |
| CCCC(c1nc2cc(F)c(Cl)cc2c(=O)n1CC)N1CCCN(C)CC1 (centres unmarked) [Example 89, 6-chloro-3-ethyl-7-fluoro-2-(1-(4-methyl-1,4-diazepan-1-yl)butyl)quinazolin-4(3H)-one] | < 500 nM | < 500 nM |
| CCCC(c1nc2cc(F)c(Cl)cc2c(=O)n1CC)N1CCCNCC1 (centres unmarked) [Example 90, 2-(1-(1,4-diazepan-1-yl)butyl)-6-chloro-3-ethyl-7-fluoroquinazolin-4(3H)-one] | < 500 nM | > 1000 nM |
| CCC[C@H](c1nc2ccc(Br)cc2c(=O)n1CC)N1CCN[C@H](C)CC1 [Example 92, 6-bromo-3-ethyl-2-((R)-1-((R)-5-methyl-1,4-diazepan-1-yl)butyl)quinazolin-4(3H)-one] | 500 to 5000 nM | > 1000 nM |
| CCC[C@@H](c1nc2ccc(Br)cc2c(=O)n1CC)N1CCN[C@H](C)CC1 [Example 94, 6-bromo-3-ethyl-2-((S)-1-((R)-5-methyl-1,4-diazepan-1-yl)butyl)quinazolin-4(3H)-one] | 500 to 5000 nM | > 1000 nM |
| CCC[C@H](c1nc2cc(F)c(Br)cc2c(=O)n1CC)N1CCNC[C@H](C)C1 [Example 96, 6-Bromo-3-ethyl-7-fluoro-2-((R)-1-((S)-6-methyl-1,4-diazepan-1-yl)butyl)quinazolin-4(3H)-one] | < 500 nM | 500 to 1000 nM |
| CCC[C@H](c1nc2cc(F)c(Br)cc2c(=O)n1CC)N1CCNC[C@@H](C)C1 [Example 97, 6-bromo-3-ethyl-7-fluoro-2-((R)-1-((R)-6-methyl-1,4-diazepan-1-yl)butyl)quinazolin-4(3H)-one] | < 500 nM | 500 to 1000 nM |
| CCC[C@@H](c1nc2cc(F)c(Br)cc2c(=O)n1CC)N1CCNC[C@H](C)C1 [Example 98] | 500 to 5000 nM | > 1000 nM |
| CCC[C@@H](c1nc2cc(F)c(Br)cc2c(=O)n1CC)N1CCNC[C@@H](C)C1 [Example 99] | 500 to 5000 nM | > 1000 nM |
| CCC[C@H](c1nc2ccc(Br)cc2c(=O)n1CC)N1CCN(C)C[C@H](COC)C1 [Example 105, 6-Bromo-3-ethyl-2-((R)-1-((S)-6-(methoxymethyl)-4-methyl-1,4-diazepan-1-yl)butyl)quin-4 (3H)-one] | 500 to 5000 nM | > 1000 nM |

Other lines, results leading:

| Ki [1] | Ki (Human σ1 receptor) | Structure (SMILES) |
| --- | --- | --- |
| 500 to 5000 nM | > 1000 nM | CCC[C@@H](c1nc2ccc(Br)cc2c(=O)n1CCC)N1CCNC[C@H](C)C1 [Example 69, 6-bromo-2-((S)-1-((S)-6-methyl-1,4-diazepan-1-yl)butyl)-3-propylquinazolin-4(3H)-one] |
| > 5000 nM | > 1000 nM | CCCC(c1nc2c(Cl)cc(F)cc2c(=O)n1CC)N1CCCNCC1 (centres unmarked) [Example 71, 2-(1-(1,4-diazepan-1-yl)butyl)-8-chloro-3-ethyl-6-fluoroquinazolin-4(3H)-one] |
| < 500 nM | < 500 nM | CCCC(c1nc2ccc(F)c(F)c2c(=O)n1CC)N1CCCN(C)CC1 (centres unmarked) [Example 72, 3-ethyl-5,6-difluoro-2-(1-(4-methyl-1,4-diazepan-1-yl)butyl)quinazolin-4(3H)-one] |
| 500 to 5000 nM | < 500 nM | CCCC(c1nc2ccc(F)c(F)c2c(=O)n1CC)N1CCCN(CC)CC1 (centres unmarked) [Example 78, 3-ethyl-2-(1-(4-ethyl-1,4-diazepan-1-yl)butyl)-5,6-difluoroquinazolin-4(3H)-one] |
| < 500 nM | < 500 nM | CCCC(c1nc2ccc(Cl)cc2c(=O)n1CCC)N1CCCN(CC)CC1 (centres unmarked) [Example 79, 6-chloro-2-(1-(4-ethyl-1,4-diazepan-1-yl)butyl)-3-propylquinazolin-4(3H)-one] |
| 500 to 5000 nM | 500 to 1000 nM | CCCC(c1nc2ccc(Br)c(Cl)c2c(=O)n1CC)N1CCCNCC1 (centres unmarked) [Example 82, 2-(1-(1,4-diazepan-1-yl)butyl)-6-bromo-5-chloro-3-ethylquinazolin-4(3H)-one] |
| > 5000 nM | < 500 nM | CCCC(c1nc2ccc(Br)c(Cl)c2c(=O)n1CC)N1CCCN(CC)CC1 (centres unmarked) [Example 83, 6-bromo-5-chloro-3-ethyl-2-(1-(4-ethyl-1,4-diazepan-1-yl)butyl)quinazolin-4(3H)-one] |
| 500 to 5000 nM | < 500 nM | CCCC(c1nc2ccc(Br)cc2c(=O)n1C)N1CCCN(C)CC1 (centres unmarked) [Example 84, 6-bromo-3-methyl-2-(1-(4-methyl-1,4-diazepan-1-yl)butyl)quinazolin-4(3H)-one] |
| < 500 nM | < 500 nM | CCCC(c1nc2cc(Cl)c(Cl)cc2c(=O)n1CC)N1CCCN(C)CC1 (centres unmarked) [Example 87, 6,7-dichloro-3-ethyl-2-(1-(4-methyl-1,4-diazepan-1-yl)butyl)quinazolin-4(3H)-one] |
| > 5000 nM | > 1000 nM | CCCC(c1nc2cccnc2c(=O)n1CC)N1CCCN(CC)CC1 (centres unmarked) [Example 88, 3-ethyl-2-(1-(4-ethyl-1,4-diazepan-1-yl)butyl)pyrido[3,2-d]pyrimidin-4(3H)-one] |
| < 500 nM | 500 to 1000 nM | CCCC(c1nc2cc(Cl)c(Cl)cc2c(=O)n1CC)N1CCCNCC1 (centres unmarked) [Example 91, 2-(1-(1,4-diazepan-1-yl)butyl)-6,7-dichloro-3-ethylquinazolin-4(3H)-one] |
| < 500 nM | 500 to 1000 nM | CCC[C@H](c1nc2ccc(Br)cc2c(=O)n1CC)N1CCN[C@@H](C)CC1 [Example 93, 6-bromo-3-ethyl-2-((R)-1-((S)-5-methyl-1,4-diazepan-1-yl)butyl)quinazolin-4(3H)-one] |
| > 5000 nM | > 1000 nM | CCC[C@@H](c1nc2ccc(Br)cc2c(=O)n1CC)N1CCN[C@@H](C)CC1 [Example 95, 6-bromo-3-ethyl-2-((S)-1-((S)-5-methyl-1,4-diazepan-1-yl)butyl)quinazolin-4(3H)-one] |
| > 5000 nM | > 1000 nM | CCCC(c1nc2cccnc2c(=O)n1CC)N1CCCNCC1 (centres unmarked) [Example 100, 2-(1-(1,4-diazepan-1-yl)butyl)-3-ethylpyrido[3,2-d]pyrimidin-4(3H)-one] |
| < 500 nM | > 1000 nM | CCC[C@H](c1nc2ccc(Br)cc2c(=O)n1CC)N1CCN(C)C[C@@H](COC)C1 [Example 106, 6-bromo-3-ethyl-2-((R)-1-((R)-6-(methoxymethyl)-4-methyl-1,4-diazepan-1-yl)butyl)quinazolin-4(3H)-one] |
